In US5440012A, “Calcitonin and method for the preparation and use thereof” (Sumitomo Metal Industries, Ltd., priority 1991, dated 1995):
Positions of bridges follow the written chain, without caps; N, C: chain ends. Residues, ends and D or L forms follow the SMILES beside them.

Columns and labels:
[1] = system: grown cartilage cell culture of rabbit costal cartilage; test: Alkaline phosphatase activity per protein in rabbit costal cartilage cell culture (chondrocyte differentiation); format: cell-based; conditions: 10 μl of 10^-12 mol/ml calcitonin solution added on fourth and sixth days, 9 days incubation; control about 88,150
Method: When their physiological activities on cartilage cells or chondrocytes were determined according to the technique of Bessey et al (J. Biol. Chem. 164: 321-329, 1964) and that of Lowry et al (J. Biol. Chem. 193: 265-275, 1951), a strong cell differentiation-promoting activity was noted. […]
After incubation for 9 days, the cell layer (1) was recovered and the alkaline phosphatase activity in each well was determined by the method of Bessey et al (J. Biol. Chem. 164: 321-329, 1946) using p-nitrophenylphosphoric acid as a substrate.
The amount of protein in each well was also determined by assaying the recovered cell layer (1) in accordance with the method of Lowry et al (J. Biol. Chem. 193: 265-275, 1951) using bovine serum albumin as a standard substance.
The value for alkaline phosphatase activity per unit weight of protein was calculated from the values for alkaline phosphatase activity and amount of protein determined as above. The calculated value of the control was about 88,150 nmol/30 min/mg-protein. […]

[2] = system: concentration of calcium in the serum; test: Blood calcium-decreasing activity in rats (serum calcium, parallel line assay); format: in vivo, Male Wistar rats
Method: The physiological activities of the pure naturally-occurring stingray calcitonin extracted from the ultimobranchial gland of a stingray and those of synthetic stingray calcitonin obtained in the above-described manner were determined according to the technique of Homma et al (J. Biochem. 100: 459-467, 1986).
Male Wistar rats weighing 90-110 grams (10 animals in each group) which had fasted for 24 hours prior to the experiment were intravenously injected with a standard solution of salmon calcitonin or eel calcitonin or a solution of the synthetic stingray calcitonin (produced in Example 2) each dissolved in an aqueous 0.9% sodium chloride solution (pH 4.6) containing 0.1% bovine serum albumin at a dose of 1 pmol or 10 pmol per animal. Exactly one hour after the administration, a blood sample was collected from the artery of each test animal and the concentration of calcium in the serum was determined by atomic absorption spectroscopy. Based on the values for serum calcium concentration in rats of the groups in which one of the standard solutions was administered at a dose of 1 pmol or 10 pmol per animal and those in rats of the group in which the stingray calcitonin of the present invention was administered at the same dose, the relative titer of the stingray calcitonin was determined by the standard statistical procedures for parallel line assays. […]

Compound: CC[C@H](C)[C@H](NC(=O)[C@H](CC(N)=O)NC(=O)[C@H](CCC(N)=O)NC(=O)[C@H](CC(C)C)NC(=O)[C@H](CCCCN)NC(=O)[C@H](Cc1c[nH]cn1)NC(=O)[C@H](CC(C)C)NC(=O)[C@H](CCC(N)=O)NC(=O)[C@H](CCC(N)=O)NC(=O)[C@H](CO)NC(=O)[C@H](CC(C)C)NC(=O)[C@H](CCCCN)NC(=O)CNC(=O)[C@@H](NC(=O)[C@@H](NC(=O)[C@@H]1CSSC[C@H](N)C(=O)N[C@@H]([C@@H](C)O)C(=O)N[C@@H](CO)C(=O)N[C@@H](CC(C)C)C(=O)N[C@@H](CO)C(=O)N[C@@H]([C@@H](C)O)C(=O)N1)C(C)C)C(C)C)C(=O)N[C@@H](CCC(N)=O)C(=O)N[C@@H](CCCNC(=N)N)C(=O)N[C@H](C(=O)N[C@@H](CC(=O)O)C(=O)N[C@H](C(=O)NCC(=O)N[C@@H](C)C(=O)N[C@@H](C)C(=O)N[C@H](C(=O)N1CCC[C@H]1C(N)=O)[C@@H](C)O)C(C)C)[C@@H](C)O [calcitonin of the present invention] (H-CTSLSTCVVGKLSQQLHKLQNIQRTDVGAATP-NH2; disulfide 1-7)
- alkaline phosphatase activity per unit weight of protein [1]: about 106,000 nmol/30 min/mg-protein
- titer (blood calcium-decreasing activity) ([2]; rats, intravenous, 1 pmol or 10 pmol per animal, serum calcium one hour after administration, salmon and eel calcitonin used as standard substances): about 3770 IU/mg
- blood calcium-decreasing activity (in words) ([2]; technique of Homma et al): strong blood calcium-decreasing activity
